Where “and” joins values, the source holds several entries; their conditions need not be identical. Identical values can stand only once. Like-named read-outs stand apart in the source and are kept apart here. Values belong to the molecule of their own block, whether it stands above or below them.
Columns and labels:
Format in all cases: cell-based, human
A2780S [1] = assay: Inhibition of cell growth (cells counted on Coulter Counter after six days)
Protocol: The experiment was conducted in triplicate in the manner described with respect to Table I.
A2780 cells were well-plated (35 mm disnes) and 24 hours later the cells were treated with cisplatin for one hour, washed out and then treated with 6 concentrations of from 1 μM to 100 μM increased in equal increments of a nucleoside analog in saline. Cells were then washed and incubated for six days. The cells were counted on a Coulter Counter and the experiment was done in triplicate.
(§1) Table VI includes EC50 data further exemplifying the invention. The data reported by Table VI was obtained by substantially the same procedure as that described with respect to Table III. In Table VI, “(C)” indicates continuous exposure, “(1 h)” and “(2 h)” indicate exposure for 1 hour and 2 hours; “HU” indicates hydroxyurea.

A2780DDP [2] = assay: as above
Protocol: The experiment was conducted in triplicate in the manner described with respect to Table I. […]
as §1

HCT8DDP = assay: as above
Protocol: as §1

HCT8S = assay: as above
Protocol: as §1

HCF7S = assay: Inhibition of cell growth, Table VI
HCF-7 DDP = assay: Inhibition of cell growth, Table VI; conditions: for EC50: HCF-7 DDP
Protocol: as §1

K562-araC = assay: Inhibition of cell growth, Table VI; conditions: for EC50: K562-araC
Protocol: as §1

K562S = assay: Inhibition of cell growth, Table VI
Protocol: as §1

K562-DDP = assay: Inhibition of cell growth, Table VI; conditions: K562-DDP
K562-VP16 = assay: Inhibition of cell growth, Table VI
A2780S [3] = assay: Dual labeled (14C/3H) DNA synthesis and degradation in response to cisplatin; conditions: cisplatin 20 μM
Protocol: A dual labeled (^14C/^3H) experiment was designed to measure simultaneously DNA synthesis and degradation in response to cisplatin. […] A2780S cells respond to cisplatin with a modest degradation (10%) of (^14C) DNA over 3 hrs. In contrast, A2780DDP degradation 40.5% of the (^14C) DNA in 3 hrs. […] Transplatin at equimolar concentrations (20 μM) had no influence on DNA synthesis or degradation in A2780 cells.

A2780DDP [4] = assay: Dual labeled (14C/3H) DNA synthesis and degradation in response to cisplatin; incorporation of labelled nucleoside analogs; conditions: cisplatin 20 μM
Excerpt: A dual labeled (^14C/^3H) experiment was designed to measure simultaneously DNA synthesis and degradation in response to cisplatin.

[5] = Homo sapiens, A2780S, (C) continuous exposure, read-out: EC50
[6] = Homo sapiens, A2780 DDP, (C) continuous exposure, read-out: EC50
[7] = Homo sapiens, HCT8-DDP, (C) continuous exposure, read-out: EC50
[8] = Homo sapiens, (C) continuous exposure, read-out: EC50
[9] = Homo sapiens, (C) continuous exposure
[10] = A2780S, (C) continuous exposure, read-out: EC50
[11] = A2780 DDP, (C) continuous exposure, read-out: EC50
[12] = HCT8-DDP, (C) continuous exposure, read-out: EC50
[13] = (C) continuous exposure, read-out: EC50

EC50 (K562-araC; [9]): > 300 µM
EC50 (K562S; [9]): > 300 µM
EC50 (K562-DDP; [9]): > 300 µM
EC50 (K562-VP16; [9]): > 300 µM
Structure (SMILES): Nc1nc2c(ncn2COCCO)c(=O)[nH]1 [Acyclovir]
EC50 (A2780S [1]; [5]): > 300 µM
EC50 (A2780DDP [2]; [6]): > 300 µM
EC50 (HCT8DDP; [7]): > 300 µM
EC50 (HCT8S; [8]): > 300 µM
EC50 (HCF7S; [9]): > 300 µM
EC50 (HCF-7 DDP; [9]): > 300 µM

EC50 (K562-araC; [9]): 20 µM
EC50 (K562S; [9]): 10 µM
EC50 (K562-DDP; [9]): 295 µM
EC50 (K562-VP16; [9]): 250 µM
Structure (SMILES): Nc1nc(O)c2ncn(COC(CO)CO)c2n1 [Ganciclovir, ganciclovir]
EC50 (A2780S [1]; [5]): 110 µM
EC50 (A2780S [1]; Homo sapiens, A2780S, treated 24 h after plating, counted six days later, mean + SD, read-out: Ganciclovir EC50): 110 µM
fold more sensitive (lower concentration), cisplatin resistant vs sensitive A2780 cells (A2780DDP [2]; A2780DDP vs A2780S): 3-4 fold and 3.3 fold
EC50 (A2780DDP [2]; [6]): 30 µM
EC50 (A2780DDP [2]; Homo sapiens, A2780DDP, treated 24 h after plating, counted six days later, mean + SD, read-out: Ganciclovir EC50): 30 µM
fold more sensitive, cispt resistant vs sensitive HCT8 cells (HCT8DDP; HCT8 human colon cancer cells): 1.5 fold
EC50 (HCT8DDP; [7]): 40 µM
EC50 (HCT8DDP; Homo sapiens, HCT8DDP, treated 24 h after plating, counted six days later, mean + SD, read-out: Ganciclovir EC50): 40 µM
EC50 (HCT8S; [8]): 60 µM
EC50 (HCT8S; Homo sapiens, treated 24 h after plating, counted six days later, mean + SD, read-out: Ganciclovir EC50): 60 µM
EC50 (HCF7S; [9]): 200 µM
EC50 (HCF-7 DDP; [9]): 50 µM
fold more sensitive, cispt resistant vs sensitive MCF7 cells (HCF-7 DDP; MCF7 human breast cancer cells): 4 fold

EC50 (K562-araC; (C) continuous exposure): 40 µM
EC50 (K562S; (C) continuous exposure): 40 µM
EC50 (K562-DDP; (C) continuous exposure): 140 µM
EC50 (K562-VP16; (C) continuous exposure): 40 µM
Structure (SMILES): NC(=O)NO [NU, hydroxyurea]
EC50 (A2780S [1]; [10]): 75 µM
EC50 (A2780DDP [2]; [11]): 60 µM
EC50 (HCT8DDP; [12]): 100 µM
EC50 (HCT8S; [13]): 100 µM
EC50 (HCF7S; (C) continuous exposure): 100 µM
EC50 (HCF-7 DDP; (C) continuous exposure): 200 µM

EC50 (K562-araC; (C) continuous exposure): 42 µM
EC50 (K562S; (C) continuous exposure): 62 µM
EC50 (K562-DDP; (C) continuous exposure): 75 µM
EC50 (K562-VP16; (C) continuous exposure): 55 µM
Structure (SMILES): NC(=O)c1ncn([C@@H]2O[C@H](CO)[C@@H](O)[C@H]2O)n1 [Ribovirin]
EC50 (A2780S [1]; [10]): 27 µM
EC50 (A2780DDP [2]; [11]): 45 µM
EC50 (HCT8DDP; [12]): 50 µM
EC50 (HCT8S; [13]): 70 µM
EC50 (HCF7S; (C) continuous exposure): 100 µM

The next lines start with the molecule.

Structure (SMILES): N.N.[Cl][Pt][Cl] [Cisplatin, cisplatin]
EC50 (A2780S [1]; A2780S, (1h) exposure, read-out: EC50): 7 µM
EC50 (A2780S [1]; treatment time 1 hr, proliferation during 6 days, mean + SD, read-out: EC50 A2780S): 7 µM
Ratio (degree of resistance or cross-resistance) (A2780DDP [2]; A2780DDP vs A2780S EC50, treatment time 1 hr): +12.8
EC50 (A2780DDP [2]; A2780 DDP, (1h) exposure, read-out: EC50): 90 µM
fold resistance, cisplatin resistant vs sensitive A2780 cells (A2780DDP [2]; A2780 ovarian carcinoma cells): > 12 fold
EC50 (A2780DDP [2]; treatment time 1 hr, proliferation during 6 days, mean + SD, read-out: EC50 A2780DDP): 90 µM
EC50 (HCT8DDP; HCT8-DDP, (1h) exposure, read-out: EC50): 100 µM
fold resistance, cispt resistant vs sensitive HCT8 cells (HCT8DDP; HCT8 human colon cancer cells): 2.7 fold
EC50 (HCT8S; (1h) exposure, read-out: EC50): 30 µM
EC50 (HCF7S; (1h) exposure): 15 µM
EC50 (HCF-7 DDP; (1h) exposure): 35 µM
fold resistance, cispt resistant vs sensitive MCF7 cells (HCF-7 DDP; MCF7 human breast cancer cells): 2.3 fold
EC50 (K562-araC; (1h) exposure): 25 µM
EC50 (K562S; (1h) exposure): 6 µM
EC50 (K562-DDP; (1h) exposure): 15 µM
EC50 (K562-VP16; (1h) exposure): 15 µM
degradation of (14C) DNA (A2780S [3]; A2780S, over 3 hrs): 10%
14C-Tdr/DNA A2780S (A2780S [3]; treatment time 0 min): 6.49
14C-Tdr/DNA A2780S (A2780S [3]; treatment time 45 min): 6.21
14C-Tdr/DNA A2780S (A2780S [3]; treatment time 90 min): 5.71
14C-Tdr/DNA A2780S (A2780S [3]; treatment time 180 min): 6.06
degradation of (14C) DNA (A2780DDP [4]; A2780DDP, in 3 hrs): 40.5%
14C-Tdr/DNA A2780DDP (A2780DDP [4]; treatment time 0 min): 17.78
14C-Tdr/DNA A2780DDP (A2780DDP [4]; treatment time 45 min): 14.44
14C-Tdr/DNA A2780DDP (A2780DDP [4]; treatment time 90 min): 12.59
14C-Tdr/DNA A2780DDP (A2780DDP [4]; treatment time 180 min): 10.57

Structure (SMILES): Nc1ncnc2c1ncn2[C@@H]1O[C@H](CO)C[C@H]1O [Cordicpin]
EC50 (A2780S [1]; [10]): 70 µM
EC50 (A2780DDP [2]; [11]): 310 µM
EC50 (HCT8DDP; [12]): 95 µM
EC50 (HCT8S; [13]): 110 µM
EC50 (HCF7S; (C) continuous exposure): 130 µM
EC50 (K562-araC; (C) continuous exposure): 67 µM
fold more sensitive, araC resistant vs sensitive K562 cells (K562-araC; K562 human leukemia cells): 2 fold
EC50 (K562S; (C) continuous exposure): 130 µM
EC50 (K562-DDP; (C) continuous exposure): 160 µM
EC50 (K562-VP16; (C) continuous exposure): 150 µM
